Experimental data as given in ChEMBL document CHEMBL6114952, “Synthesis and antitumor effects of novel betulinic acid derivatives bearing electrophilic moieties” (Bioorg Med Chem, 2025).
pIC50: −log10 of the molar value. Activity calls are given as the source filed them. No cut-off for these calls is given here.

What was measured:
[1] = tested on: MCF7; assay: Inhibition of cell migration in human MCF7 cells incubated for 12 to 24 hrs by wound healing assay; assay type: functional, cell-based; conditions: dose 1-4 µM, time 12-24 hrs
[2] = target: Serine/threonine-protein kinase mTOR (Homo sapiens) (UniProt P42345); assay: Inhibition of mTOR phosphorylation in human MCF7 cells incubated for 24 hrs by Western blot analysis; assay type: cell-based; conditions: dose 0.5-2 µM
[3] = tested on: MCF7; assay: Induction of apoptosis in human MCF7 cells assessed as late apoptotic cells at 1 uM incubated for 24 hrs by Annexin V-FITC/PI double staining based flow cytometric analysis (reference value: 11.8 %); assay type: functional
[4] = tested on: MCF7; assay: Induction of cell cycle arrest in human MCF7 cells assessed as accumulation of cells at G1 phase at 0.5 uM incubated for 24 hrs by PI/RNase staining based flow cytometric analysis (reference value: 52.7 %); assay type: functional
[5] = tested on: MCF7; assay: Inhibition of AKT phosphorylation in human MCF7 cells incubated for 24 hrs by Western blot analysis; assay type: cell-based; conditions: dose 0.5-2 µM
[6] = tested on: MCF7; assay: Induction of apoptosis in human MCF7 cells assessed as late apoptotic cells at 2 uM incubated for 24 hrs by Annexin V-FITC/PI double staining based flow cytometric analysis (reference value: 11.8 %); assay type: functional
[7] = tested on: Trastuzumab-resistant JIMT-1 cell; assay: Inhibition of AKT phosphorylation in human Trastuzumab-resistant JIMT-1 cells at 1 uM cotreated with trastuzumab by Western blot analysis; assay type: cell-based
[8] = tested on: MCF7; assay: Induction of apoptosis in human MCF7 cells assessed as necrotic cells at 2 uM incubated for 24 hrs by Annexin V-FITC/PI double staining based flow cytometric analysis (reference value: 3.44 %); assay type: functional
[9] = tested on: MCF7; assay: Induction of cell cycle arrest in human MCF7 cells assessed as accumulation of cells at S phase at 2 uM incubated for 24 hrs by PI/RNase staining based flow cytometric analysis (reference value: 26.4 %); assay type: functional
[10] = tested on: MCF7; assay: Induction of cell cycle arrest in human MCF7 cells assessed as accumulation of cells at S phase at 0.5 uM incubated for 24 hrs by PI/RNase staining based flow cytometric analysis (reference value: 26.4 %); assay type: functional
[11] = tested on: MCF7; assay: Induction of cell cycle arrest in human MCF7 cells assessed as accumulation of cells at S phase at 1 uM incubated for 24 hrs by PI/RNase staining based flow cytometric analysis (reference value: 26.4 %); assay type: functional
[12] = tested on: HeLa; assay: Inhibition of cell migration in human HeLa cells incubated for 12 to 24 hrs by wound healing assay; assay type: functional, cell-based; conditions: dose 1-4 µM, time 12-24 hrs
[13] = tested on: MCF7; assay: Induction of apoptosis in human MCF7 cells assessed as necrotic cells at 1 uM incubated for 24 hrs by Annexin V-FITC/PI double staining based flow cytometric analysis (reference value: 3.44 %); assay type: functional
[14] = tested on: MCF7; assay: Induction of cell cycle arrest in human MCF7 cells assessed as accumulation of cells at G2/M phase at 0.5 uM incubated for 24 hrs by PI/RNase staining based flow cytometric analysis (reference value: 20.8 %); assay type: functional
[15] = tested on: MDA-MB-231; assay: Antiproliferative activity against human MDA-MB-231 cells assessed as inhibition of cell proliferation incubated for 48 hrs by MTT assay; assay type: functional, cell-based; conditions: MDA-MB-231, 48 h
[16] = tested on: MCF7; assay: Induction of apoptosis in human MCF7 cells assessed as viable cells at 0.5 uM incubated for 24 hrs by Annexin V-FITC/PI double staining based flow cytometric analysis (reference value: 83.2 %); assay type: functional; conditions: read-out: Activity
[17] = tested on: MCF7; assay: Inhibition of colony formation in human MCF7 cells assessed as decrease in colonies incubated for 10 days with replacement of medium for every 3 days by crystal violet staining based assay; assay type: functional, cell-based; conditions: dose 0.5-2 µM, time 10.0 day
[18] = target: Serine/threonine-protein kinase mTOR (Homo sapiens) (UniProt P42345); assay: Inhibition of mTOR phosphorylation in human Trastuzumab-resistant JIMT-1 cells at 1 uM by Western blot analysis; assay type: cell-based; conditions: Trastuzumab-resistant JIMT-1 cell
[19] = tested on: HeLa; assay: Antiproliferative activity against human HeLa cells assessed as inhibition of cell proliferation incubated for 48 hrs by MTT assay; assay type: functional, cell-based
[20] = tested on: MCF7; assay: Induction of cell cycle arrest in human MCF7 cells assessed as accumulation of cells at G2/M phase at 2 uM incubated for 24 hrs by PI/RNase staining based flow cytometric analysis (reference value: 20.8 %); assay type: functional
[21] = tested on: MCF7; assay: Induction of apoptosis in human MCF7 cells assessed as early apoptotic cells at 0.5 uM incubated for 24 hrs by Annexin V-FITC/PI double staining based flow cytometric analysis (reference value: 1.56 %); assay type: functional
[22] = target: Serine/threonine-protein kinase mTOR (Homo sapiens) (UniProt P42345); assay: Inhibition of mTOR phosphorylation in human Trastuzumab-resistant JIMT-1 cells at 1 uM cotreated with trastuzumab by Western blot analysis; assay type: cell-based; conditions: Trastuzumab-resistant JIMT-1 cell
[23] = tested on: MCF7; assay: Antitumor activity against human MCF7 cells xenografted in female BALB/c mouse assessed as tumor growth inhibition at 5 mg/kg, iv administered daily for 14 days relative to control; assay type: functional; conditions: MCF7, 336 h, time 14 day, read-out: TGI
[24] = tested on: MCF7; assay: Induction of autophagy in human MCF7 cells incubated for 24 hrs by MDC probe based confocal microscopy analysis; assay type: functional, cell-based; conditions: dose 0.5-2 µM
[25] = tested on: JIMT-1; assay: Synergistic antiproliferative activity against human JIMT-1 cells assessed inhibition of cell growth at 0.25 to 1 uM by MTT assay; assay type: functional, cell-based; conditions: dose 0.25-1 µM
[26] = Antiproliferative activity against human Trastuzumab-resistant JIMT-1 cells at 0.5 uM by MTT assay relative to control; assay type: functional, Trastuzumab-resistant JIMT-1 cell
[27] = tested on: MCF7; assay: Induction of apoptosis in human MCF7 cells assessed as viable cells at 2 uM incubated for 24 hrs by Annexin V-FITC/PI double staining based flow cytometric analysis (reference value: 83.2 %); assay type: functional; conditions: read-out: Activity
[28] = tested on: MCF7; assay: Induction of apoptosis in human MCF7 cells assessed as early apoptotic cells at 1 uM incubated for 24 hrs by Annexin V-FITC/PI double staining based flow cytometric analysis (reference value: 1.56 %); assay type: functional
[29] = tested on: MCF7; assay: Induction of cell cycle arrest in human MCF7 cells assessed as accumulation of cells at G1 phase at 1 uM incubated for 24 hrs by PI/RNase staining based flow cytometric analysis (reference value: 52.7 %); assay type: functional
[30] = tested on: MCF7; assay: Induction of ROS generation in human MCF7 cells assessed as increase in intracellular ROS level at 0.5 to 2 uM incubated for 24 hrs by DCFH-DA staining based microscopic analysis; assay type: functional, cell-based; conditions: dose 0.5-2 µM
[31] = Antiproliferative activity against human Trastuzumab-resistant JIMT-1 cells at 0.5 uM in presence of trastuzumab by MTT assay relative to control; assay type: functional, Trastuzumab-resistant JIMT-1 cell
[32] = tested on: MCF7; assay: Induction of cell cycle arrest in human MCF7 cells assessed as accumulation of cells at G1 phase at 2 uM incubated for 24 hrs by PI/RNase staining based flow cytometric analysis (reference value: 52.7 %); assay type: functional
[33] = tested on: MCF7; assay: Antiproliferative activity against human MCF7 cells assessed as inhibition of cell proliferation incubated for 48 hrs by MTT assay; assay type: functional, cell-based; conditions: MCF7, 48 h
[34] = tested on: MCF7; assay: Induction of apoptosis in human MCF7 cells assessed as necrotic cells at 0.5 uM incubated for 24 hrs by Annexin V-FITC/PI double staining based flow cytometric analysis (reference value: 3.44 %); assay type: functional
[35] = tested on: MCF7; assay: Induction of cell cycle arrest in human MCF7 cells assessed as accumulation of cells at G2/M phase at 1 uM incubated for 24 hrs by PI/RNase staining based flow cytometric analysis (reference value: 20.8 %); assay type: functional
[36] = tested on: MCF7; assay: Induction of apoptosis in human MCF7 cells assessed as viable cells at 1 uM incubated for 24 hrs by Annexin V-FITC/PI double staining based flow cytometric analysis (reference value: 83.2 %); assay type: functional; conditions: read-out: Activity
[37] = tested on: MCF7; assay: Induction of apoptosis in human MCF7 cells assessed as early apoptotic cells at 2 uM incubated for 24 hrs by Annexin V-FITC/PI double staining based flow cytometric analysis (reference value: 1.56 %); assay type: functional
[38] = tested on: MCF7; assay: Induction of apoptosis in human MCF7 cells assessed as late apoptotic cells at 0.5 uM incubated for 24 hrs by Annexin V-FITC/PI double staining based flow cytometric analysis (reference value: 11.8 %); assay type: functional
[39] = Toxicity in female BALB/c mouse xenografted with human MCF7 cells assessed as body weight loss at 5 mg/kg, iv measured daily for 14 days; assay type: organism-based; conditions: in vivo, 336 h, time 14 day
[40] = tested on: Trastuzumab-resistant JIMT-1 cell; assay: Inhibition of AKT phosphorylation in human Trastuzumab-resistant JIMT-1 cells at 1 uM by Western blot analysis; assay type: cell-based

For `C=C(C)[C@@H]1CC[C@]2(C(=O)O)CC[C@]3(C)[C@H](CC[C@@H]4[C@@]5(C)CC[C@H](OC(=O)N6CCN(C(=O)CCl)CC6)C(C)(C)[C@@H]5CC[C@]43C)[C@@H]12`, the inhibition [1] was “Dose-dependent-effect”, the inhibition [2] was “Dose-dependent-effect” and the Activity [3] was 19.2%. For the same compound, the Activity [4] was 54.7%, the inhibition [5] was “Dose-dependent-effect” and the Activity [6] was 22%. The inhibition [7] was “Active”, the Activity [8] was 2.93% and the Activity [9] was 19.8%. The Activity [10] was 22%, the Activity [11] was 19.1% and the inhibition [12] was “Dose-dependent-effect”. For the same compound, the Activity [13] was 3.93%, the Activity [14] was 23.4% and the pIC50 [15] was 5.78. The viability at 0.5 µM [16] was 79.7%, the inhibition [17] was “Dose-dependent-effect” and the inhibition [18] was “Active”. It also gave a pIC50 [19] of 5.95, an Activity [20] of 27.2% and an Activity [21] of 2.47%. For the same compound, the inhibition [22] was “Active”, the inhibition in vivo at 5 mg/kg [23] was 36% and the Activity [24] was “Dose-dependent-effect”. The Activity [25] was “Active”, the Activity [26] was 19.9% and the viability at 2 µM [27] was 72.3%. For the same compound, the Activity [28] was 1.99%, the Activity [29] was 56.4% and the Activity [30] was “Active”. For the same compound, the Activity [31] was 59%, the Activity [32] was 53.4% and the pIC50 [33] was 5.96. For the same compound, the Activity [34] was 2.49%, the Activity [35] was 24.3% and the viability at 1 µM [36] was 74.9%. For the same compound, the Activity [37] was 2.72%, the Activity [38] was 15.3% and the Activity [39] was “Non-toxic”. For the same compound, the inhibition [40] was “Active”.
